According to patent publication EP0217372A2, “Polyoxygenated labdane derivatives, process for their preparation and their use as medicaments” (HOECHST AKTIENGESELLSCHAFT, priority 1985, dated 1987):

Test system: systolischer Blutdruck
Test: Blood pressure lowering in conscious spontaneously hypertensive rats (tail cuff)
Assay type: in vivo, SH-Ratten
Details: 25 mg/kg oral once daily for 5 days; difference from baseline, 2 hours after dosing
Description: Blutdrucksenkung bei wachen hypertonen Ratten
Die blutdrucksenkende Wirkung wird bei wachen Ratten mit spontaner Hyperonie (SH) ermittelt. Eingesetzt werden dazu männliche SH-Ratten (250 - 300 g, 12 - 16 Wochen alt) des Wistar-Okamoto-Stammes aus eigener Züchtung. Vor der Blutdruckmessung werden die Ratten 10 Minuten bei 37'C in einer Wärmekammer aufgewärmt. Der systolische Blutdruck wird bei den wachen Ratten mittels Schwanzmanschetten-Methode gemessen, wobei ein piezoelektrischer Kristall zur Anzeige des Druckpulses, ein aneroides Manometer zur Druckmessung und ein Kardioskop (BPL-India) zur Anzeige des Verschwindens und/oder Auftretens des Druckpulses verwendet wird.
Die zu testenden erfindungsgemäßen Verbindungen werden unter Verwendung von stöchiometrischer 0,1 n HCl-Lösung bzw. die Salze direkt in Wasser gelöst und in dieser Form den SH-Ratten 5 Tage lang einmal täglich in einer Dosierung von 25 mg/kg oral verabreicht. Eine Gruppe dient als Kontrolle und erhält das Vehikel. Der systolische Blutdruck wird vor der ersten Verabreichung des Medikamentes und 2 Stunden danach registriert. Eine Senkung des systolischen Blutdruckes ist die Differenz zwischen dem Blutdruck nach der Behandlung und dem Ausgangswert.

Row | SMILES | Senkung des systolischen Blutdruckes
1 | C=CC1(C)CC(=O)C2(O)C(C)(O1)C(O)C(OC(=O)CN1CCCCC1)C1C(C)(C)CCC(O)C12C (centres unmarked) | 14
2 | C=CC1(C)CC(=O)C2(O)C(C)(O1)C(OC(=O)CN1CCCCC1)C(O)C1C(C)(C)CCC(O)C12C (centres unmarked) | 35
